We go through two substances from patent US20100267803A1, “Regulators Of Fat Metabolism As Anti-Cancer Targets” (The Research Foundation of State University Of New York, priority 2008, published 2010).

Holding throughout (format): cell-based, human
Data set [1] concerns ERBB2 overexpressing (BT474, MDA-MB-361) breast cancer cell lines. Description: alamarBlue proliferation of shRNA-transfected ERBB2-overexpressing cell lines. To be noted: shRNA transfection. The text has this:
(§1) FIG. 1 An RNAi screen targeting genes overexpressed in breast cancer. (a) Three transfection mixes were produced for each shRNA and each was transfected into triplicate wells of BT474 cells. AlamarBlue was used to monitor cell proliferation and viability. […] (b) The genetic and functional linkage of NR1D1 and PBP. Mb refers to map position on chromosome 17. (c) ERBB2-overexpressing (OEX) and ERBB2 non-overexpressing (non-OEX) breast cancer cell lines as well as the (non-OEX) HMEC and HEK 293 cells were transfected and assayed as in (a). […] Genes clustered with ERBB2 are boxed.
(§2) To assess the specificity of effect of each shRNA on cell proliferation, those causing the greatest decrease in BT474 cell proliferation were transfected in a variety of cell lines, including ERBB2 overexpressing (BT474, MDA-MB-361) and nonoverexpressing breast cancer cell lines (MCF-7, MDA-MB-453, MDA-MB-468), normal human mammary epithelial cells (HMECs) and a non-breast tumorigenic cell line (HEK 293FT). […] PBP, NRID1 and PFN2 shRNAs clustered with ERBB2.
(§3) RNAi screen, transfections and constructs. The flag-RevErba (flag-NR1D1) overexpression construct was a generous gift of M. Lazar. The LSXN-neu* (ERBB2) overexpression construct was a generous gift of L. Petti. shRNA constructs were expressed from the pSHAG-MAGIC 2 (pSM2) vector and derived from a genome-wide shRNA library^31. ShRNAs targeting the firefly (Photinus pyralis) luciferase gene were used as controls. Transfection efficiency was monitored by co-transfection with a modified MSCV-Puro vector expressing green fluorescent protein (GFP). The alamarBlue (Biosource) assay was performed 96 h post-transfection, since BT474 cells have a population doubling time of ˜100 hours. […] For quantification of alamarBlue we used a BioTek HT Synergy plate reader. AlamarBlue values from the RNAi screens on other cell types were also calculated as above and subjected to hierarchical cluster analysis using Cluster 2.11 (M. Eisen Lab).
(Alamar Blue is a resazurin reagent that responds to reducing activity.)

Data set [2] deals with nonoverexpressing breast cancer cell lines (MCF-7, MDA-MB-453, MDA-MB-468), HMECs, HEK 293FT. Description: alamarBlue proliferation of shRNA-transfected ERBB2 non-overexpressing cell lines. To be noted: MCF-7, MDA-MB-453, MDA-MB-468, HMEC, shRNA transfection.
Source text: as §1, §2, §3

In the next data set the test system is FASN mRNA. Description: qRT-PCR of FASN mRNA in BT474 cells. The note with it: shRNA or 20 μM GW9662 for 48 h. As for the experimental part: (§4) FIG. 4 NR1D1 and PBP coordinate fatty acid metabolism in breast cancer cells. (a) BT474, MDA-MB-361, MCF-7 and HMEC cells were stained with Oil-Red O lipid and hematoxylin nuclear stains. (b) Fat stores were quantified by BODIPY 493/503 lipid probe staining (Error bars are s.d from 3 individual experiments). (c) FASN, ACLY, ACACA and FADS2 mRNA levels of BT474 cells treated with luciferase (control), PBP or NR1D1 shRNAs, or with vehicle and 20 μM of GW9662 for 48 h, analyzed by qRT-PCRs. (Error bars are s.d from 3 experiments; ***P<0.001, **P=0.005) (d) BT474 cells were transfected with FASN, ACLY and ACACA shRNAs and co-transfected with GFP. Transfected cells were counted at 24 h and 72 h and the 72h-to-24 h ratio for each shRNA was calculated and expressed as % of the control shRNA (luciferase). (Error bars are s.d from 3 individual experiments; **P<0.01, ***P<0.002). (e) BODIPY images and (f) quantification of BT474 cells transfected with luciferase (control), PBP or NR1D1 shRNAs and co-transfected with DsRed (Error bars are s.d from 3 individual experiments; ***P<0.03). Arrows indicate transfected cells.
(§5) Cell viability—apoptosis assays. […] At least 30 fields were imaged per single experiment. […] Immunoblotting. […] PCR reaction was run using standard conditions.
(Real-time PCR tracks product formation cycle by cycle.)

The next data set concerns ACLY mRNA. Nature of the data set: qRT-PCR of ACLY mRNA in BT474 cells. The note with it: shRNA or 20 μM GW9662 for 48 h. The protocol: as §4, §5
Another data set concerns ACACA mRNA. Nature of the data set: qRT-PCR of ACACA mRNA in BT474 cells. To be noted: shRNA or 20 μM GW9662 for 48 h. As for the experimental part: as §4, §5
A further data set concerns FADS2 mRNA. Description: qRT-PCR of FADS2 mRNA in BT474 cells. To be noted: shRNA or 20 μM GW9662 for 48 h. As for the experimental part: as §4, §5

With “PBP shRNA: shRNA, mature sequence CCGAGTTCCTCTTATCCTA (shRNA)”, in data set [1], the “viability of ERBB2-positive cells” value is given as “specifically decreased the viability of ERBB2-positive cells”. In addition, the “effect on other cell lines or HMECs” value in data set [2] is recorded as “without effect on other cell lines or HMECs”. For the same substance, the FASN transcript level entry in the data set on FASN mRNA is “reduced”. The ACLY transcript level result in the data set on ACLY mRNA is listed as “reduced”. Further, the ACACA transcript level entry in the data set with ACACA mRNA is “reduced”. Moreover, the FADS2 transcript levels result in the data set with FADS2 mRNA is “downregulated”.
In the case of “NR1D1 shRNA: shRNA, mature sequence GGCATGGTGTTACTGTGTA (shRNA)”, in data set [1], the “viability of ERBB2-positive cells” value is given as “specifically decreased the viability of ERBB2-positive cells”. Further, the “effect on other cell lines or HMECs” value in data set [2] is reported as “without effect on other cell lines or HMECs”. The FASN transcript level result with FASN mRNA is “reduced”. The ACLY transcript level entry with ACLY mRNA was “reduced”. The ACACA transcript level result in the data set with ACACA mRNA was “reduced”. The FADS2 transcript levels entry with FADS2 mRNA was “downregulated”.
